Where a name gives a salt, the structure may show the parent alone. Read-outs that look alike come from different tables or passages of the source.
How the values were obtained:
Hafnia alvei 025 = test: Ex.4 colony coloration, 5-bromo-3-indolyl nonanoate, DMSO/Tween 20, MacConkey; format: cell-based; parameters: key: —: absence of colour or intensity; conditions: 8 ml/l Tergitol 4
[1] = system: Salmonella typhimurium 010; test: Ex.2 colony coloration, 5-bromo-3-indolyl nonanoate, methanol/bile salts, MacConkey; format: cell-based; for intensity of coloration: key: 0: no activity; 0.1: trace of coloration; 0.5: very pale coloration; 1: distinct coloration of low intensity; 2: clear coloration of medium intensity; 3: intense coloration; 4: very intense coloration
[2] = system: Gram-positive bacteria or yeasts
Protocol: (§1) The esterase substrate tested is 5-bromo-4-chloro-3-indolyl nonanoate. A 40 g/l stock solution of substrate is prepared in a mixture of 40% dimethyl sulfoxide and 60% Tween 20. A sufficient volume is added to a supercooled MacConkey medium (without neutral red) to give a substrate concentration of 250 mg/l.
(§2) Microorganisms originating from the Applicant's collection were inoculated onto this medium from a 0.5 McFarland suspension by isolation in three quadrants. The dishes were incubated at 37° C. for 48 hours. The colonies formed were examined visually after 24 and 48 hours of incubation. The coloration of these colonies and the intensity of this coloration were noted.

[3] = system: Salmonella paratyphi A 006
Protocol: (§3) The esterase substrate tested is 5-bromo-3-indolyl nonanoate. A 25 g/l stock solution of substrate is prepared in methanol to which 5 g/l of bile salts have been added. A sufficient volume is added to a supercooled MacConkey medium (without neutral red) to give a substrate concentration of 500 mg/l.
as §2
(§4) Note: In the above Examples, the numbers following the strains correspond to the number of each strain referenced in the Applicant's collection. The intensity of coloration corresponds to an arbitrary scale defined as follows: […]

Salmonella spp. 017 [4] = system: Salmonella spp. 017
Protocol: as §3, §2, §4

[5] = system: Salmonella paratyphi A 006; remark: listed apart in the source
Protocol: as §1, §2, §4

Salmonella spp. 017 [6] = system: Salmonella spp. 017; remark: listed apart in the source
Protocol: as §1, §2, §4

[7] = system: bacterial strains exhibiting an esterase activity; conditions: between 2 and 16 ml/l, more precisely between 4 and 8 ml/l
Protocol: as §3, §2

Salmonella arizonae 018 = test: Ex.1 colony coloration, 5-bromo-3-indolyl nonanoate, DMSO/Tween 20, MacConkey; format: cell-based
Protocol: (§5) The esterase substrate tested is 5-bromo-3-indolyl nonanoate. A 40 g/l stock solution of substrate is prepared in a mixture of 40% dimethyl sulfoxide and 60% Tween 20. A sufficient volume is added to a supercooled MacConkey medium (without neutral red) to give a substrate concentration of 500 mg/l.

[8] = system: Listeria monocytogenes 023; test: Ex.3 colony coloration, 5-bromo-4-chloro-3-indolyl nonanoate 250 mg/l, DMSO/Tween 20; format: cell-based; note: key: 0: no activity; 0.1: trace of coloration; 0.5: very pale coloration; 1: distinct coloration of low intensity; 2: clear coloration of medium intensity; 3: intense coloration; 4: very intense coloration
[9] = system: Salmonella typhimurium 010; test: Ex.1 colony coloration, 5-bromo-3-indolyl nonanoate, DMSO/Tween 20, MacConkey; format: cell-based
Protocol: as §5

Candida albicans 033 = test: Ex.3 colony coloration, 5-bromo-4-chloro-3-indolyl nonanoate 250 mg/l, DMSO/Tween 20; format: cell-based; note: key: 0: no activity; 0.1: trace of coloration; 0.5: very pale coloration; 1: distinct coloration of low intensity; 2: clear coloration of medium intensity; 3: intense coloration; 4: very intense coloration

## CCCCC(CC)CCC(CC(C)C)OS(=O)(=O)O (stereo not drawn) [Tergitol 4, 7-ethyl-2-methyl-4-undecanoate hydrogensulfate or its sodium salt]
Hafnia alvei 025; 24 h
  color: —
Hafnia alvei 025; 48 h
  color: —
[1]; 2 ml/l, 24 h
  color: gray
  intensity of coloration: 2
[1]; 2 ml/l, 48 h
  color: gray
  intensity of coloration: 2
[1]; 4 ml/l, 24 h
  color: gray
  intensity of coloration: 2
[1]; 4 ml/l, 48 h
  color: gray
  intensity of coloration: 3
[1]; 8 ml/l, 24 h
  color: gray
  intensity of coloration: 3
[1]; 8 ml/l, 48 h
  color: gray
  intensity of coloration: 3
[1]; 16 ml/l, 24 h
  color: gray
  intensity of coloration: 3
[1]; 16 ml/l, 48 h
  color: gray
  intensity of coloration: 3.5
[2]; 0.001 to 1 ml/l tested
  effect on the expression of the esterase activity: positive effect
[2]; excessive Tergitol 4 concentrations
  growth on culture medium: cannot develop on a culture medium
[3]; 2 ml/l, 24 h
  color: gray
  intensity of coloration: 0.1
[3]; 2 ml/l, 48 h
  color: gray
  intensity of coloration: 0.5
[3]; 4 ml/l, 24 h
  color: gray
  intensity of coloration: 0.1
[3]; 4 ml/l, 48 h
  color: gray
  intensity of coloration: 1
Salmonella spp. 017 [4]; 2 ml/l, 24 h
  color: gray
  intensity of coloration: 1
Salmonella spp. 017 [4]; 2 ml/l, 48 h
  color: gray
  intensity of coloration: 1.5
Salmonella spp. 017 [4]; 4 ml/l, 24 h
  color: gray
  intensity of coloration: 1
Salmonella spp. 017 [4]; 4 ml/l, 48 h
  color: gray
  intensity of coloration: 1.5
Salmonella spp. 017 [4]; 8 ml/l, 24 h
  color: gray
  intensity of coloration: 1
Salmonella spp. 017 [4]; 8 ml/l, 48 h
  color: gray
  intensity of coloration: 1.5
Salmonella spp. 017 [4]; 16 ml/l, 24 h
  color: gray
  intensity of coloration: 1
Salmonella spp. 017 [4]; 16 ml/l, 48 h
  color: gray
  intensity of coloration: 1.5
[5]; 0.001 ml/l, 24 h
  intensity of coloration: 0.1
[5]; 0.001 ml/l, 48 h
  intensity of coloration: 0.5
[5]; 0.01 ml/l, 24 h
  intensity of coloration: 0.1
[5]; 0.01 ml/l, 48 h
  intensity of coloration: 1
[5]; 0.1 ml/l, 24 h
  intensity of coloration: 0.1
[5]; 0.1 ml/l, 48 h
  intensity of coloration: 0.5
[5]; 1 ml/l (1st col), 24 h
  intensity of coloration: 0.5
[5]; 1 ml/l (1st col), 48 h
  intensity of coloration: 2
[5]; 1 ml/l (2nd col), 24 h
  intensity of coloration: 0.5
[5]; 1 ml/l (2nd col), 48 h
  intensity of coloration: 2
Salmonella spp. 017 [6]; 0.001 ml/l, 24 h
  intensity of coloration: 2
Salmonella spp. 017 [6]; 0.001 ml/l, 48 h
  intensity of coloration: 3
Salmonella spp. 017 [6]; 0.01 ml/l, 24 h
  intensity of coloration: 2
Salmonella spp. 017 [6]; 0.01 ml/l, 48 h
  intensity of coloration: 3
Salmonella spp. 017 [6]; 0.1 ml/l, 24 h
  intensity of coloration: 2
Salmonella spp. 017 [6]; 0.1 ml/l, 48 h
  intensity of coloration: 3
Salmonella spp. 017 [6]; 1 ml/l (1st col), 24 h
  intensity of coloration: 2
Salmonella spp. 017 [6]; 1 ml/l (1st col), 48 h
  intensity of coloration: 3
Salmonella spp. 017 [6]; 1 ml/l (2nd col), 24 h
  intensity of coloration: 2
Salmonella spp. 017 [6]; 1 ml/l (2nd col), 48 h
  intensity of coloration: 3
[7]
  effect on intensity of coloration: significantly increases the intensity of coloration
Salmonella arizonae 018; 2 ml/l, 24 h
  color: gray
  intensity of coloration: 2
Salmonella arizonae 018; 2 ml/l, 48 h
  color: gray
  intensity of coloration: 2.5
Salmonella arizonae 018; 4 ml/l, 24 h
  color: gray
  intensity of coloration: 3.5
Salmonella arizonae 018; 4 ml/l, 48 h
  color: gray
  intensity of coloration: 3.5
Salmonella arizonae 018; 8 ml/l, 24 h
  color: gray
  intensity of coloration: 3.5
Salmonella arizonae 018; 8 ml/l, 48 h
  color: gray
  intensity of coloration: 3.5
Salmonella arizonae 018; 16 ml/l, 24 h
  color: gray
  intensity of coloration: 3.5
Salmonella arizonae 018; 16 ml/l, 48 h
  color: gray
  intensity of coloration: 4
[8]; 0.001 ml/l, 24 h
  intensity of coloration: 2
[8]; 0.001 ml/l, 48 h
  intensity of coloration: 2
[8]; 0.01 ml/l, 24 h
  intensity of coloration: 2.5
[8]; 0.01 ml/l, 48 h
  intensity of coloration: 3
[8]; 0.1 ml/l, 24 h
  intensity of coloration: 2
[8]; 0.1 ml/l, 48 h
  intensity of coloration: 3
[8]; 1 ml/l (1st col), 24 h
  intensity of coloration: 2
[8]; 1 ml/l (1st col), 48 h
  intensity of coloration: 3
[8]; 1 ml/l (2nd col), 24 h
  intensity of coloration: 2
[8]; 1 ml/l (2nd col), 48 h
  intensity of coloration: 3
[9]; 2 ml/l, 24 h
  color: gray
  intensity of coloration: 2
[9]; 2 ml/l, 48 h
  color: gray
  intensity of coloration: 2.5
[9]; 4 ml/l, 24 h
  color: gray
  intensity of coloration: 3
[9]; 4 ml/l, 48 h
  color: gray
  intensity of coloration: 3
[9]; 8 ml/l, 24 h
  color: gray
  intensity of coloration: 3.5
[9]; 8 ml/l, 48 h
  color: gray
  intensity of coloration: 3.5
[9]; 16 ml/l, 24 h
  color: gray
  intensity of coloration: 3.5
[9]; 16 ml/l, 48 h
  color: gray
  intensity of coloration: 4
Candida albicans 033; 0.001 ml/l, 24 h
  intensity of coloration: 0.5
Candida albicans 033; 0.001 ml/l, 48 h
  intensity of coloration: 3
Candida albicans 033; 0.01 ml/l, 24 h
  intensity of coloration: 0.5
Candida albicans 033; 0.01 ml/l, 48 h
  intensity of coloration: 3
Candida albicans 033; 0.1 ml/l, 24 h
  intensity of coloration: 0.5
Candida albicans 033; 0.1 ml/l, 48 h
  intensity of coloration: 3
Candida albicans 033; 1 ml/l (1st col), 24 h
  intensity of coloration: 0.5
Candida albicans 033; 1 ml/l (1st col), 48 h
  intensity of coloration: 3
Candida albicans 033; 1 ml/l (2nd col), 24 h
  intensity of coloration: 0.5
Candida albicans 033; 1 ml/l (2nd col), 48 h
  intensity of coloration: 3

Source: patent publication US7235379B2, “Method and medium for the detection/identification of microorgranisms with esterase activity” (Bio Merieux, priority 2000, dated 2007)
